Measured values reported in PubChem BioAssay (NCI).
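Assay format: 96-well plates, 48-hour exposure. GI50 is the concentration that inhibits growth by half. TGI denotes the concentration required for complete inhibition of growth.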

Experiments:
Assay in all cases: DTP human tumour cell line panel, 48 h
[1] = tested on: 786-0 renal
[2] = tested on: A498 renal
[3] = tested on: A549 NSCLC
[4] = tested on: ACHN renal
[5] = tested on: BT-549 breast
[6] = tested on: CCRF-CEM leukemia
[7] = tested on: COLO 205 colon
[8] = tested on: DU-145 prostate
[9] = tested on: EKVX NSCLC
[10] = tested on: HCC-2998 colon
[11] = tested on: HCT-116 colon
[12] = tested on: HCT-15 colon
[13] = tested on: HL-60(TB) leukemia
[14] = tested on: HOP-62 NSCLC
[15] = tested on: HOP-92 NSCLC
[16] = tested on: HS 578T breast
[17] = tested on: HT29 colon
[18] = tested on: IGROV1 ovarian
[19] = tested on: K-562 leukemia
[20] = tested on: KM12 colon
[21] = tested on: M14 melanoma
[22] = tested on: MCF7 breast
[23] = tested on: MDA-MB-231 breast
[24] = tested on: MDA-MB-435
[25] = tested on: MOLT-4 leukemia
[26] = tested on: NCI-H226 lung
[27] = tested on: NCI-H23 lung
[28] = tested on: NCI-H460 lung
[29] = tested on: NCI-H522 lung
[30] = tested on: NCI/ADR-RES ovarian
[31] = tested on: OVCAR-3 ovarian
[32] = tested on: OVCAR-4 ovarian
[33] = tested on: OVCAR-5 ovarian
[34] = tested on: OVCAR-8 ovarian
[35] = tested on: PC-3 prostate
[36] = tested on: RPMI-8226 leukemia
[37] = tested on: RXF 393 renal
[38] = tested on: SF-268 CNS
[39] = tested on: SF-295 CNS
[40] = tested on: SF-539 CNS
[41] = tested on: SK-MEL-2 melanoma
[42] = tested on: SK-MEL-28 melanoma
[43] = tested on: SK-MEL-5 melanoma
[44] = tested on: SK-OV-3 ovarian
[45] = tested on: SN12C renal
[46] = tested on: SNB-19 CNS
[47] = tested on: SNB-75 CNS
[48] = tested on: SW-620 colon
[49] = tested on: T-47D breast
[50] = tested on: TK-10 renal
[51] = tested on: U251 CNS
[52] = tested on: UACC-257 melanoma
[53] = tested on: UACC-62 melanoma
[54] = tested on: UO-31 renal
[55] = tested on: CAKI-1 renal
[56] = tested on: LOX IMVI melanoma

O=C(NCCCCN(CCCNC(=O)C(F)(F)F)Cc1ccccc1)C(F)(F)F
TGI [1]: > 100 µM | TGI [2]: > 100 µM | TGI [3]: > 100 µM | TGI [4]: > 100 µM | TGI [5]: > 100 µM | TGI [6]: > 100 µM | TGI [7]: > 100 µM | TGI [8]: > 100 µM | TGI [9]: > 100 µM | TGI [10]: > 100 µM | TGI [11]: > 100 µM | TGI [12]: > 100 µM | TGI [13]: > 100 µM | TGI [14]: > 100 µM | TGI [15]: > 100 µM | TGI [16]: > 100 µM | TGI [17]: > 100 µM | TGI [18]: > 100 µM | TGI [19]: > 100 µM | TGI [20]: > 100 µM | TGI [21]: > 100 µM | TGI [22]: > 100 µM | TGI [23]: > 100 µM | TGI [24]: > 100 µM | TGI [25]: > 100 µM | TGI [26]: > 100 µM | TGI [27]: > 100 µM | TGI [28]: > 100 µM | TGI [29]: > 100 µM | TGI [30]: > 100 µM | TGI [31]: > 100 µM | TGI [32]: > 100 µM | TGI [33]: > 100 µM | TGI [34]: > 100 µM | TGI [35]: > 100 µM | TGI [36]: > 100 µM | TGI [37]: > 100 µM | TGI [38]: > 100 µM | TGI [39]: > 100 µM | TGI [40]: > 100 µM | TGI [41]: > 100 µM | TGI [42]: > 100 µM | TGI [43]: > 100 µM | TGI [44]: > 100 µM | TGI [45]: > 100 µM | TGI [46]: > 100 µM | TGI [47]: > 100 µM | TGI [48]: > 100 µM | TGI [49]: > 100 µM | TGI [50]: > 100 µM | TGI [51]: > 100 µM | TGI [52]: > 100 µM | TGI [53]: > 100 µM | TGI [54]: > 100 µM

COc1ccccc1NC(=O)c1ccc(NC2=C(Cl)C(=O)N(Cc3ccccc3)C2=O)cc1
GI50 [2]: 27.8 µM | TGI [2]: 86.3 µM | GI50 [3]: 10.5 µM | TGI [3]: 90.4 µM | GI50 [4]: 33.4 µM | TGI [4]: > 100 µM | GI50 [5]: 1.46 µM | TGI [5]: 11 µM | GI50 [55]: 1.48 µM | TGI [55]: 2.95 µM | GI50 [6]: 0.0777 µM | TGI [6]: > 100 µM | GI50 [7]: 44.9 µM | TGI [7]: > 100 µM | GI50 [8]: 2.01 µM | TGI [8]: 28 µM | GI50 [9]: 29.1 µM | TGI [9]: > 100 µM | GI50 [10]: 4.2 µM | TGI [10]: 15.4 µM | GI50 [11]: 12.9 µM | TGI [11]: 36.2 µM | GI50 [12]: 14.7 µM | TGI [12]: 38.8 µM | GI50 [13]: 3.36 µM | TGI [13]: 43.5 µM | GI50 [14]: 26.8 µM | TGI [14]: 63.5 µM | GI50 [15]: 3.68 µM | TGI [15]: 45.4 µM | GI50 [16]: 37.5 µM | TGI [16]: > 100 µM | GI50 [17]: 36.8 µM | TGI [17]: > 100 µM | GI50 [18]: 1.36 µM | TGI [18]: 4.29 µM | GI50 [19]: 4.21 µM | TGI [19]: > 100 µM | GI50 [20]: 26.6 µM | TGI [20]: 86 µM | GI50 [56]: 10.3 µM | TGI [56]: 35 µM | GI50 [21]: 17.6 µM | TGI [21]: 40.4 µM | GI50 [22]: 7.77 µM | TGI [22]: 54 µM | GI50 [23]: 2.82 µM | TGI [23]: 16.3 µM | GI50 [24]: 11.2 µM | TGI [24]: 40.5 µM | GI50 [25]: 3.31 µM | TGI [25]: > 100 µM | GI50 [26]: 6.84 µM | TGI [26]: 32.9 µM | GI50 [27]: 12 µM | TGI [27]: 25.9 µM | GI50 [28]: 33.4 µM | TGI [28]: > 100 µM | GI50 [29]: 5.09 µM | TGI [29]: 22.6 µM | GI50 [30]: 15.2 µM | TGI [30]: 48.1 µM | GI50 [31]: 10.2 µM | TGI [31]: 22.6 µM | GI50 [32]: 29.3 µM | TGI [32]: > 100 µM | GI50 [33]: 44.1 µM | TGI [33]: > 100 µM | GI50 [34]: 2.27 µM | TGI [34]: 32.9 µM | GI50 [35]: 0.976 µM | TGI [35]: 5.75 µM | GI50 [36]: 0.0257 µM | TGI [36]: 0.363 µM | GI50 [37]: 19.9 µM | TGI [37]: 78.8 µM | GI50 [38]: 25.4 µM | TGI [38]: > 100 µM | GI50 [39]: 18.2 µM | TGI [39]: 63.4 µM | GI50 [40]: 16.6 µM | TGI [40]: 41.2 µM | GI50 [41]: 11.2 µM | TGI [41]: 29.9 µM | GI50 [42]: 30.3 µM | TGI [42]: > 100 µM | GI50 [43]: 16 µM | TGI [43]: 45.3 µM | GI50 [44]: > 100 µM | TGI [44]: > 100 µM | GI50 [45]: 10.3 µM | TGI [45]: 39.5 µM | GI50 [46]: 48.9 µM | TGI [46]: > 100 µM | GI50 [47]: 37.7 µM | TGI [47]: > 100 µM | GI50 [48]: 5.29 µM | TGI [48]: > 100 µM | GI50 [49]: 41.2 µM | TGI [49]: > 100 µM | GI50 [50]: 40.3 µM | TGI [50]: 89.1 µM | GI50 [51]: 29.3 µM | TGI [51]: > 100 µM | GI50 [52]: 0.228 µM | TGI [52]: 21.9 µM | GI50 [53]: 0.877 µM | TGI [53]: 24.5 µM | GI50 [54]: 1.7 µM | TGI [54]: 3.2 µM

N#Cc1cc2c(cc1Cl)SC(=Nc1ccccc1)N(S(=O)(=O)c1ccc(Cl)cc1)S2(=O)=O
GI50 [1]: 14.2 µM | TGI [1]: 28.6 µM | GI50 [2]: 16.4 µM | TGI [2]: 32.8 µM | GI50 [3]: 20.3 µM | TGI [3]: 54.5 µM | GI50 [4]: 17.7 µM | TGI [4]: 33.2 µM | GI50 [5]: 13.4 µM | TGI [5]: 30.4 µM | GI50 [55]: 12.3 µM | TGI [55]: 27.2 µM | GI50 [6]: 20.6 µM | TGI [6]: 39.1 µM | GI50 [7]: 32 µM | TGI [7]: > 100 µM | GI50 [8]: 16.6 µM | TGI [8]: 35.7 µM | GI50 [9]: 16.9 µM | TGI [9]: 34.4 µM | GI50 [10]: 17.8 µM | TGI [10]: 33 µM | GI50 [11]: 3.78 µM | TGI [11]: 18 µM | GI50 [12]: 15.2 µM | TGI [12]: 33.6 µM | GI50 [13]: > 100 µM | TGI [13]: > 100 µM | GI50 [14]: 13.5 µM | TGI [14]: 29.9 µM | GI50 [16]: 21.6 µM | TGI [16]: 57.8 µM | GI50 [17]: 31 µM | TGI [17]: > 100 µM | GI50 [18]: 5.56 µM | TGI [18]: 21.2 µM | GI50 [19]: 50.5 µM | TGI [19]: > 100 µM | GI50 [20]: 14 µM | TGI [20]: 28.1 µM | GI50 [56]: 10.8 µM | TGI [56]: 28.8 µM | GI50 [21]: 10 µM | TGI [21]: 24.8 µM | GI50 [22]: 14.8 µM | TGI [22]: 37.6 µM | GI50 [23]: 14.5 µM | TGI [23]: 34.5 µM | GI50 [24]: 13 µM | TGI [24]: 27.8 µM | GI50 [25]: 28.7 µM | TGI [25]: > 100 µM | GI50 [26]: 17.7 µM | TGI [26]: 42.9 µM | GI50 [28]: 20.8 µM | TGI [28]: 53.5 µM | GI50 [29]: 3.29 µM | TGI [29]: 17.3 µM | GI50 [30]: 18 µM | TGI [30]: 44.6 µM | GI50 [31]: 4.95 µM | TGI [31]: 17.9 µM | GI50 [32]: 19 µM | TGI [32]: 42.2 µM | GI50 [33]: 16.8 µM | TGI [33]: 32.9 µM | GI50 [34]: 18 µM | TGI [34]: 51 µM | GI50 [35]: 17.5 µM | TGI [35]: 38.2 µM | GI50 [36]: 10.6 µM | TGI [36]: 51.7 µM | GI50 [37]: 5.68 µM | TGI [37]: 30.1 µM | GI50 [38]: 16.9 µM | TGI [38]: 41.6 µM | GI50 [39]: 22.5 µM | TGI [39]: 72.7 µM | GI50 [40]: 19.8 µM | TGI [40]: 39.8 µM | GI50 [41]: 3.61 µM | TGI [41]: 16.8 µM | GI50 [42]: 17.1 µM | TGI [42]: 37.7 µM | GI50 [43]: 13.4 µM | TGI [43]: 28.7 µM | GI50 [44]: 20 µM | TGI [44]: 40.8 µM | GI50 [45]: 17.2 µM | TGI [45]: 37.1 µM | GI50 [46]: 35.5 µM | TGI [46]: > 100 µM | GI50 [47]: 18.9 µM | TGI [47]: 42.2 µM | GI50 [48]: 17.4 µM | TGI [48]: 39.5 µM | GI50 [49]: 19.9 µM | TGI [49]: 64.1 µM | GI50 [50]: 0.656 µM | TGI [50]: 3.64 µM | GI50 [51]: 17.7 µM | TGI [51]: 36.6 µM | GI50 [52]: 18.6 µM | TGI [52]: 40.4 µM | GI50 [53]: 14.7 µM | TGI [53]: 29 µM | GI50 [54]: 9.84 µM | TGI [54]: 26.9 µM
